The values below come from US8084602B2, “Porphyrin derivatives and their use in photodynamic therapy” (Destiny Pharma Limited, priority 2002, dated 2011).

Where two headings read alike, the source gives them in different places.

Assay [1] relates to Staphylococcus aureus (methicillin-resistant strain ATTC BAA-44). The assay can be described thus: Initial screening: growth inhibition after white light illumination. The class given is cell-based. Conditions: for Growth inhibition (%): S. aureus, 3 μM, 5 min incubation; for inhibition at 3 µM: Staphylococcus aureus. The method, then:
(§1) The toxic effects of exemplary compounds of the invention against two bacterial strains, the Gram negative bacterium Escherichia coli (strain ATCC 25922) and the Gram positive bacterium Staphylococcus aureus (methicillin-resistant strain ATTC BAA-44), were evaluated by measuring the extent of growth inhibition (bacteriostatic effect) and growth […] (cytocidal effect) in the dark and upon light exposure. Initial compound screening was undertaken using white light [390-740 nm] (150 mW/cm^2) for various timepoints of a concentration of 3 μM (see Table 1). Further experiments were undertaken on those compounds identified from this initial screen using a light source emitting light at a wavelength between 417-420 nm at 15.2 mW/cm^2, 13.68 J/cm^2 (Waldmann Eclairage SA, France) (see Table 20.
(§2) The following protocol was used for the initial screening of the exemplary compounds (Table 1) (see Reddi et al., 2002, Photochem. Photobiol. 75(5):462-470): • (i) E. coli and S. aureus cells were grown overnight on brain heart infusion agar, resuspended in brain heart infusion broth, harvested by centrifugation (3000 g for 15 minutes) and washed once with phosphate buffered saline (PBS) at pH 7.4 consisting 2.7 mM KCl and 0.14 M NaCl. • (ii) The cells were then resuspended in PBS to an optical density at 650 nm of 0.7, which corresponds to a density of 10^8 to 10^9 cells/ml. • (iii) Next, the cells were incubated in PBS in the dark for 5 minutes with 3.0 μM of the compound to be tested. • (iv) After dark incubation, cells were illuminated with white light (wavelength: 390 to 740 nm) (150 mW/cm^2) for up to 30 minutes. During illumination, the cells were kept at 37° C. and magnetically stirred. • (v) Finally, treated and untreated (control) cells were diluted in brain heart infusion broth and maintained at […] while the absorbance of the suspension at 650 nm was monitored at predetermined time points for determining growth curves.
(§3) The percent of growth inhibition in the treated cells was calculated by the following equation: [1−(Ax−A0)/(Ac−A0)]×100 where Ax Ac are the absorbances measured after 3 hours incubation, for the treated and control cell suspensions, respectively, and A0 represents the initial absorbance.

The test system of assay [2] is Escherichia coli (strain ATCC 25922). Described as above. The class given is cell-based. Conditions: for Growth inhibition (%): E. coli, 3 μM, 5 min incubation; for inhibition at 3 µM: Escherichia coli. The method, then:
as §1, §2, §3

Where [3] appears, read: BAA44, 5 min, read-out: Growth inhibition (%), S. aureus, 5 min incubation, illumination time 5 min.
Where [4] appears, read: BAA44, read-out: Growth inhibition (%), S. aureus, 5 min incubation, illumination time 0 min.
Setting [5] is: BAA44, read-out: Growth inhibition (%), S. aureus, 5 min incubation, illumination time 1 min.
The mark [6] stands for this setting: BAA44, read-out: Growth inhibition (%), S. aureus, 5 min incubation, illumination time 10 min.
[7] abbreviates: BAA44, read-out: Growth inhibition (%), S. aureus, 5 min incubation, illumination time 15 min.
Setting [8] is: BAA44, read-out: Growth inhibition (%), S. aureus, 5 min incubation, illumination time 30 min.

Turning to “5,10,15-tris-[4-(3-Trimethyl-ammoniopropyloxy)-phenyl]-20-(4-tetradecyloxy-phenyl)-porphyrin trichloride [Compound 36, reference compound]”, the “Growth inhibition (%)” value in assay [1] (illumination time 0 min) was 22%; in assay [1] (illumination time 1 min), 96%; in assay [1] (illumination time 5 min), 100%; in assay [1] (illumination time 10 min), 100%; in assay [1] (illumination time 15 min), 100%; in assay [1] (illumination time 30 min) it was 100%. Further, the “Growth inhibition (%)” value in assay [2] (illumination time 0 min) was 6%; in assay [2] (illumination time 1 min) it was 56%; in assay [2] (illumination time 5 min), 84%; in assay [2] (illumination time 10 min), 90%; in assay [2] (illumination time 15 min), 92%; in assay [2] (illumination time 30 min), 95%.
As for “5,10,15-tris[3-(3-Trimethyl-ammoniopropyloxy)-phenyl]-20-(3-undecyloxy-phenyl)-porphyrin trichloride [Compound 33, reference compound]”, the “Growth inhibition (%)” value is recorded as 22% in assay [1] (illumination time 0 min); 57% in assay [1] (illumination time 1 min); 99% in assay [1] (illumination time 5 min); 100% in assay [1] (illumination time 10 min); 100% in assay [1] (illumination time 15 min); 100% in assay [1] (illumination time 30 min). Besides, the “Growth inhibition (%)” value in assay [2] (illumination time 0 min) is 6%; in assay [2] (illumination time 1 min), 10%; in assay [2] (illumination time 5 min) it was 25%; in assay [2] (illumination time 10 min) it was 53%; in assay [2] (illumination time 15 min), 67%; in assay [2] (illumination time 30 min), 78%.
Consider “5,15-bis-[3-(3-Trimethylammmonio-proploxy)-phenyl]-10-undecyl-porphyrin dichloride [Compound 28]”, for which the “Growth inhibition (%)” value in assay [1] (illumination time 0 min) is reported as 15%; in assay [1] (illumination time 1 min) it was 91%; in assay [1] (illumination time 5 min) it was 100%; in assay [1] (illumination time 10 min), 100%; in assay [1] (illumination time 15 min), 100%; in assay [1] (illumination time 30 min) it was 100%. In addition, the “Growth inhibition (%)” value in assay [2] (illumination time 0 min) is reported as 4%; in assay [2] (illumination time 1 min) it was 21%; in assay [2] (illumination time 5 min) it was 60%; in assay [2] (illumination time 10 min), 73%; in assay [2] (illumination time 15 min) it was 81%; in assay [2] (illumination time 30 min) it was 92%.
As for “5-[4-(3-Dimethyldecyl-ammoniopropyloxy)-phenyl]-15-{4-[3-dimethyl-(3-dimethylaminopropyl)-ammoniopropyloxy]-phenyl}-porphyrin dichloride [Compound 32]”, the “Growth inhibition (%)” value in assay [1] (illumination time 0 min) is 23%; in assay [1] (illumination time 1 min), 100%; in assay [1] (illumination time 5 min) it was 100%; in assay [1] (illumination time 10 min), 100%; in assay [1] (illumination time 15 min), 100%; in assay [1] (illumination time 30 min), 100%. Moreover, the “Growth inhibition (%)” value in assay [2] (illumination time 0 min) came out at 3%; in assay [2] (illumination time 1 min), 10%; in assay [2] (illumination time 5 min), 16%; in assay [2] (illumination time 10 min), 22%; in assay [2] (illumination time 15 min), 22%; in assay [2] (illumination time 30 min) it was 38%.
With “5-{4-[3-Dimethyl-(3-trimethylammonio-propyl)-ammonio-propyloxy]-phenyl}-15-(4-dodecyloxy-phenyl)-porphyrin dichloride [Compound 31]”, the “Growth inhibition (%)” value in assay [1] (illumination time 0 min) was 9%; in assay [1] (illumination time 1 min), 28%; in assay [1] (illumination time 5 min), 38%; in assay [1] (illumination time 10 min), 78%; in assay [1] (illumination time 15 min) it was 82%; in assay [1] (illumination time 30 min), 83%.
By inhibition is commonly meant the change of the read-out against control, counted positive when it falls. `CCCCCCCCCCCOc1ccc(-c2c3nc(c(-c4ccc(OCCC[N+](CC)(CC)CC)cc4)c4ccc([nH]4)c(-c4ccc(OCCC[N+](CC)(CC)CC)cc4)c4nc(c(-c5ccc(OCCC[N+](CC)(CC)CC)cc5)c5ccc2[nH]5)C=C4)C=C3)cc1` [Compound 16, 5,10,15-tris-[4-(3-Triethylammonio-propyloxy)-phenyl]-20-(4-undecyloxy-phenyl)-porphyrin trichloride, reference compound]: the inhibition at 3 µM in assay [1] (setting [3]) worked out at 100%; in assay [1] (setting [4]) it was 12%; in assay [1] (setting [5]) it was 97%; in assay [1] (setting [6]), 100%; in assay [1] (setting [7]), 100%; in assay [1] (setting [8]), 100%. The inhibition at 3 µM in assay [2] (ATCC25922, 5 min, read-out: Growth inhibition (%), E. coli, 5 min incubation, illumination time 5 min) was found to be 92%; in assay [2] (ATCC25922, read-out: Growth inhibition (%), E. coli, 5 min incubation, illumination time 0 min) it was 8%; in assay [2] (ATCC25922, read-out: Growth inhibition (%), E. coli, 5 min incubation, illumination time 1 min), 34%; in assay [2] (ATCC25922, read-out: Growth inhibition (%), E. coli, 5 min incubation, illumination time 10 min) it was 99%; in assay [2] (ATCC25922, read-out: Growth inhibition (%), E. coli, 5 min incubation, illumination time 15 min), 100%; in assay [2] (ATCC25922, read-out: Growth inhibition (%), E. coli, 5 min incubation, illumination time 30 min), 100%.
On to `CCCCCCCCCCCOc1ccc(-c2c3nc(c(-c4ccc(OCCCCCCCCCCC)cc4)c4ccc([nH]4)c(-c4ccc(OCCC[N+](C)(C)C)cc4)c4nc(c(-c5ccc(OCCC[N+](C)(C)C)cc5)c5ccc2[nH]5)C=C4)C=C3)cc1` [Compound 29, 5,10-bis-[4-(3-Trimethylammonio-propyloxy)-phenyl]-15,20-bis-(4-undecyloxy-phenyl)-porphyrin dichloride, reference compound], for which the inhibition at 3 µM in assay [1] (setting [3]) was 49%; in assay [1] (setting [4]), 14%; in assay [1] (setting [5]) it was 43%; in assay [1] (setting [6]), 53%; in assay [1] (setting [7]), 55%; in assay [1] (setting [8]), 55%.
